Activity calls are given as the source filed them. How the calls were made is not given here.
System: rodent carcinogenicity bioassays, tumor incidence
Assay: CCRIS carcinogenicity studies
Settings: Species: RAT
How it was run: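 NCI-built, expert-reviewed records of carcinogenicity and related test outcomes (mutagenicity, tumor promotion/inhibition) compiled from published and report sources, historical span 1985-2011, not updated.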

Measured: carcinogen call

O=C1OC(O)C(C(Cl)Cl)=C1Cl (configuration not stated)
active: Strain/Sex: WISTAR/FEMALE, Route: ORAL, Dose: 0, 0.6, 1.9, 6.6 MG/KG BW IN DRINKING WATER FOR 104 WK (STUDY DURATION: 104 WK), Dose: 0, 0.6, 1.9, 6.6 MG/KG BW IN DRINKING WATER FOR 104 WK (STUDY DURATION: 104 WK), Tumor Site: Type of Lesion: MAMMARY GLAND: ADENOCARCINOMA, FIBROADENOMA, HEMATOPOIETIC SYSTEM: LYMPHOMA OR LEUKEMIA, LIVER: CHOLANGIOMA, ADENOMA, AD, Tumor Site: Type of Lesion: MAMMARY GLAND: ADENOCARCINOMA, FIBROADENOMA, HEMATOPOIETIC SYSTEM: LYMPHOMA OR LEUKEMIA, LIVER: CHOLANGIOMA, ADENOMA, AD active; positive | Strain/Sex: WISTAR/MALE, Route: ORAL, Dose: 0, 0.4, 1.3, 5 MG/KG BW IN DRINKING WATER FOR 104 WK (STUDY DURATION: 104 WK), Dose: 0, 0.4, 1.3, 5 MG/KG BW IN DRINKING WATER FOR 104 WK (STUDY DURATION: 104 WK), Tumor Site: Type of Lesion: SKIN (SUBCUTANEOUS TISSUE): BASAL CELL TUMOR, LUNG: ALVEOLAR/BRONCHIOLAR ADENOMA, LIVER: CHOLANGIOMA,ADENOMA, PANCREAS (, Tumor Site: Type of Lesion: SKIN (SUBCUTANEOUS TISSUE): BASAL CELL TUMOR, LUNG: ALVEOLAR/BRONCHIOLAR ADENOMA, LIVER: CHOLANGIOMA,ADENOMA, PANCREAS ( active; positive

CN(CCC#N)N=O
active: Strain/Sex: F344/FEMALE, Route: SUBCUTANEOUS, Dose: 0, 0.019 MMOL 3/WK FOR 20 WK (STUDY DURATION: 24 WK), Tumor Site: Type of Lesion: ESOPHAGUS: PAPILLOMA, NASAL CAVITY: PAPILLOMA, TONGUE: PAPILLOMA OR CARCINOMA, Tumor Site: Type of Lesion: ESOPHAGUS: PAPILLOMA, NASAL CAVITY: PAPILLOMA, TONGUE: PAPILLOMA OR CARCINOMA active; positive | Strain/Sex: F344/MALE, FEMALE, Route: SUBCUTANEOUS, Dose: 0, 2.13 MG IN 0.3 ML SALINE 3/WK FOR 20 WK (TOTAL DOSE 127.8 MG) (STUDY DURATION: 24 WK), Tumor Site: Type of Lesion: ESOPHAGUS: SQUAMOUS CELL PAPILLOMA, SQUAMOUS CELL CARCINOMA, TONGUE: PAPILLOMA, CARCINOMA, NASAL CAVITY: PAPILLOMA, ESTH, Tumor Site: Type of Lesion: ESOPHAGUS: SQUAMOUS CELL PAPILLOMA, SQUAMOUS CELL CARCINOMA, TONGUE: PAPILLOMA, CARCINOMA, NASAL CAVITY: PAPILLOMA, ESTH active; positive | Strain/Sex: F344/MALE,FEMALE, Route: SUBCUTANEOUS, Dose: 2.13 MG 3/WK FOR 20 WK (TOTAL DOSE 129 MG), Tumor Site: Type of Lesion: ESOPHAGUS: PAPILLOMA, CARCINOMA, NASAL CAVITY: PAPILLOMA, TONGUE: PAPILLOMA, CARCINOMA, Tumor Site: Type of Lesion: ESOPHAGUS: PAPILLOMA, CARCINOMA, NASAL CAVITY: PAPILLOMA, TONGUE: PAPILLOMA, CARCINOMA active; positive | Strain/Sex: F344/MALE, Route: MUCOUS MEMBRANE, Dose: 0, 0.3 ML OF A 15 MMOL WATER SOLUTION 1/D 3 D/WK FOR 1 WK THEN 1/D 5 D/WK FOR WK 2-4 THEN 2/D 5 D/WK FOR WK 5-6 (STUDY D, Tumor Site: Type of Lesion: NASAL CAVITY: CARCINOMA, PAPILLOMA, ADENOMA, LUNG: ADENOCARCINOMA, ADENOMA, LIVER: CARCINOMA, ADENOMA, ESOPHAGUS: PAPILL, Tumor Site: Type of Lesion: NASAL CAVITY: CARCINOMA, PAPILLOMA, ADENOMA, LUNG: ADENOCARCINOMA, ADENOMA, LIVER: CARCINOMA, ADENOMA, ESOPHAGUS: PAPILL active; positive | Strain/Sex: F344/MALE, Route: SUBCUTANEOUS, Dose: 0, 0.019 MMOL 3/WK FOR 20 WK (STUDY DURATION: 24 WK), Tumor Site: Type of Lesion: ESOPHAGUS: PAPILLOMA, NASAL CAVITY: PAPILLOMA, TONGUE: PAPILLOMA OR CARCINOMA, Tumor Site: Type of Lesion: ESOPHAGUS: PAPILLOMA, NASAL CAVITY: PAPILLOMA, TONGUE: PAPILLOMA OR CARCINOMA active; positive
